# Data as given in patent US20250034210A1, “DLL3 TARGETING PEPTIDES AND CONSTRUCTS THEREOF” (MARIANA ONCOLOGY INC., priority 2023, published 2025).
# *1 amine or outer side, *2 acyl side, *3 side chain or, on linkers, in order; H or OH if unused. Where a SMILES comes first, the peptide text is derived from it. Bridges are numbered along the chain shown (N, C = ends). [ ]: non-standard residue; d: D form. The star is where a group is joined. DOTA = O=C(O)CN1CCN(CC(=O)O)CCN(CC(=O)*)CCN(CC(=O)O)CC1; d(γGlu) = O=C(O)[C@@H](CCC(=O)[*:2])N[*:1]; Pro(4S-NH2) = N[C@@H]1CN[C@H](C(=O)O)C1; Pro(4R-NH2) = N[C@H]1CN[C@H](C(=O)O)C1; γGlu = O=C(O)[C@H](CCC(=O)[*:2])N[*:1]; dNle = CCCC[C@@H](N)C(=O)O; Pip = O=C(O)[C@@H]1CCCCN1; Ahx = NCCCCCC(=O)O
# Target: T1, human DLL3 (Homo sapiens, UniProt Q9NYJ7)
# T1 construct: biotin (biotinylated)
# T1 sequence (Q9NYJ7 27-618): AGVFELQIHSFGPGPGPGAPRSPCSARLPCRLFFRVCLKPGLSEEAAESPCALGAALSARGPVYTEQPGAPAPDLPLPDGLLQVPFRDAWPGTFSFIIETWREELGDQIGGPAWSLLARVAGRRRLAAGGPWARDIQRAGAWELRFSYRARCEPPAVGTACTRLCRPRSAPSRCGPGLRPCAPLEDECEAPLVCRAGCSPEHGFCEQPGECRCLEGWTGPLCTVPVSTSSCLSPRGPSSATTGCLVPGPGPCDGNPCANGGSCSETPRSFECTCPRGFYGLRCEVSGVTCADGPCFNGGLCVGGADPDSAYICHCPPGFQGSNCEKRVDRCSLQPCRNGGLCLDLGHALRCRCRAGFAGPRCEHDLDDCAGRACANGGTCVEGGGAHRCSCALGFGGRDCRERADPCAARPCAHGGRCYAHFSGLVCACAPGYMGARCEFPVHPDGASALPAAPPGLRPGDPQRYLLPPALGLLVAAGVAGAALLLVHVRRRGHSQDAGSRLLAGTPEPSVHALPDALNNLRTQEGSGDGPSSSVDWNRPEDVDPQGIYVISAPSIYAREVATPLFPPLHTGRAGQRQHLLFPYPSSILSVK
# Assay: Affinity determination by Surface Plasmon Resonance (SPR), biotinylated human DLL3 immobilized on streptavidin sensor chip
# Settings: 25° C., Biacore, 1:1 binding model
# Method: Affinity Determination by Surface Plasmon Resonance (SPR). SPR studies were performed on the compounds disclosed herein using the following protocol.
# The binding affinity and binding kinetic parameters at 25° C. were determined using Biacore S200 or biacore 8K instrument. Biotinylated target ligand human DLL3 was immobilized on a streptavidin sensor chip. A reference surface was set up for nonspecific binding and refractive index changes. For analysis of the kinetics of interactions, varying concentrations of samples were injected at a flow rate of 100 μL/min using running buffer containing 20 mM phosphate buffer with 2.7 mM KCl, 137 mM NaCl, 0.05% Surfactant P20 and 2% DMSO. Sensorgram curves were fitted with 1:1 binding model, and affinity and kinetic parameters were obtained using Biacore Insight evaluation 4.0. software.
row,SMILES,Kd [nM]
1,"CC[C@H](C)[C@H](NC(=O)[C@@H](NC(=O)[C@H](Cc1c[nH]c2ccccc12)NC(=O)CCCCCNC(=O)CN1CCN(CC(=O)O)CCN(CC(=O)O)CCN(CC(=O)O)CC1)[C@@H](C)O)C(=O)N[C@H]1CSSC[C@@H](C(=O)N[C@@H](Cc2c[nH]c3ccccc23)C(=O)N2CCC[C@@H]2C(N)=O)NC(=O)[C@H](CC(=O)O)NC(=O)[C@H](Cc2cnc[nH]2)NC(=O)[C@H](Cc2c[nH]c3ccccc23)NC(=O)[C@H](CC(N)=O)NC(=O)[C@H](CC(N)=O)NC1=O [compound 18, DOTA-Ahx-W-T-I-C(3)-N-N-W-H-D-C(3)-W-P-CONH2] ({DOTA-Ahx}-WTICNNWHDCW[dP]-NH2; disulfide 4-10)",1 to 10
2,"CC[C@H](C)[C@H](NC(=O)[C@@H](NC(=O)[C@H](Cc1c[nH]c2ccccc12)NC(=O)CCCCCNC(=O)CN1CCN(CC(=O)O)CCN(CC(=O)O)CCN(CC(=O)O)CC1)[C@@H](C)O)C(=O)N[C@H]1CSSC[C@@H](C(=O)N[C@@H](Cc2c[nH]c3ccccc23)C(=O)N2CCCC[C@H]2C(N)=O)NC(=O)[C@H](CC(=O)O)NC(=O)[C@H](Cc2cnc[nH]2)NC(=O)[C@H](Cc2c[nH]c3ccccc23)NC(=O)[C@H](CC(N)=O)NC(=O)[C@H](CC(N)=O)NC1=O [compound 70, DOTA-Ahx-W-T-I-C(3)-N-N-W-H-D-C(3)-W-(Pip)-CONH2] ({DOTA-Ahx}-WTICNNWHDCW[Pip]-NH2; disulfide 4-10)",10 to 100
3,"CC[C@H](C)[C@H](NC(=O)[C@@H](NC(=O)[C@H](Cc1c[nH]c2ccccc12)NC(=O)[C@@H](CCCCNC(=O)CN1CCN(CC(=O)O)CCN(CC(=O)O)CCN(CC(=O)O)CC1)NC(C)=O)[C@@H](C)O)C(=O)N[C@H]1CSSC[C@@H](C(=O)N[C@@H](Cc2c[nH]c3ccccc23)C(=O)N2CCC[C@H]2C(N)=O)NC(=O)[C@H](CC(=O)O)NC(=O)[C@H](Cc2c[nH]cn2)NC(=O)[C@H](Cc2c[nH]c3ccccc23)NC(=O)[C@H](CC(N)=O)NC(=O)[C@H](CC(N)=O)NC1=O [compound 73, Ac-D-Lys(DOTA)-W-T-I-C(3)-N-N-W-H-D-C(3)-W-P-CONH2] (Ac-[dK](DOTA)WTICNNWHDCWP-NH2; disulfide 5-11)",10 to 100
4,"CCCC[C@@H](NC(=O)[C@@H]1CCCN1C(=O)[C@H](Cc1c[nH]c2ccccc12)NC(=O)[C@@H]1CSSC[C@H](NC(=O)[C@@H](NC(=O)[C@@H](NC(=O)[C@H](Cc2c[nH]c3ccccc23)NC(=O)CCCCCNC(=O)CN2CCN(CC(=O)O)CCN(CC(=O)O)CCN(CC(=O)O)CC2)[C@@H](C)O)[C@@H](C)CC)C(=O)N[C@@H](CC(N)=O)C(=O)N[C@@H](CC(N)=O)C(=O)N[C@@H](Cc2c[nH]c3ccccc23)C(=O)N[C@@H](Cc2cnc[nH]2)C(=O)N[C@@H](CC(=O)O)C(=O)N1)C(N)=O [compound 163, DOTA-Ahx-W-T-I-C(3)-N-N-W-H-D-C(3)-W-P-(D-Nle)-NH2] ({DOTA-Ahx}-WTICNNWHDCWP[dNle]-NH2; disulfide 4-10)",1 to 10
5,"CC[C@H](C)[C@H](NC(=O)[C@@H](NC(=O)[C@H](Cc1c[nH]c2ccccc12)NC(=O)CC[C@@H](NC(=O)CC[C@@H](NC(=O)CC[C@@H](NC(=O)CN1CCN(CC(=O)O)CCN(CC(=O)O)CCN(CC(=O)O)CC1)C(=O)O)C(=O)O)C(=O)O)[C@@H](C)O)C(=O)N[C@H]1CSSC[C@@H](C(=O)N[C@@H](Cc2c[nH]c3ccccc23)C(=O)N2CCC[C@H]2C(=O)O)NC(=O)[C@H](CC(=O)O)NC(=O)[C@H](Cc2c[nH]cn2)NC(=O)[C@H](Cc2c[nH]c3ccccc23)NC(=O)[C@H](CC(N)=O)NC(=O)[C@H](CC(N)=O)NC1=O [compound 221, DOTA-(D-gE)3-W-T-I-C(3)-N-N-W-H-D-C(3)-W-P-CONH2] ({DOTA-d(γGlu)-d(γGlu)-d(γGlu)}-WTICNNWHDCWP-OH; disulfide 4-10)",10 to 100
6,"CC[C@H](C)[C@H](NC(=O)[C@@H](NC(=O)[C@H](Cc1c[nH]c2ccccc12)NC(=O)CCCCCNC(=O)CN1CCN(CC(=O)O)CCN(CC(=O)O)CCN(CC(=O)O)CC1)[C@@H](C)O)C(=O)N[C@H]1CSSC[C@@H](C(=O)N[C@@H](Cc2c[nH]c3ccccc23)C(=O)N2C[C@H](N)C[C@H]2C(N)=O)NC(=O)[C@H](CC(=O)O)NC(=O)[C@H](Cc2cnc[nH]2)NC(=O)[C@H](Cc2c[nH]c3ccccc23)NC(=O)[C@H](CC(N)=O)NC(=O)[C@H](CC(N)=O)NC1=O [compound 224, DOTA-Ahx-W-T-I-C(3)-N-N-W-H-D-C(3)-W-(trans4NH2-P)-CONH2] ({DOTA-Ahx}-WTICNNWHDCW[Pro(4R-NH2)]-NH2; disulfide 4-10)",10 to 100
7,"CC[C@H](C)[C@H](NC(=O)[C@@H](NC(=O)[C@H](Cc1c[nH]c2ccccc12)NC(=O)CCCCCNC(=O)CN1CCN(CC(=O)O)CCN(CC(=O)O)CCN(CC(=O)O)CC1)[C@@H](C)O)C(=O)N[C@H]1CSSC[C@@H](C(=O)N[C@@H](Cc2c[nH]c3ccccc23)C(=O)N2C[C@@H](N)C[C@H]2C(N)=O)NC(=O)[C@H](CC(=O)O)NC(=O)[C@H](Cc2cnc[nH]2)NC(=O)[C@H](Cc2c[nH]c3ccccc23)NC(=O)[C@H](CC(N)=O)NC(=O)[C@H](CC(N)=O)NC1=O [compound 225, DOTA-Ahx-W-T-I-C(3)-N-N-W-H-D-C(3)-W-(cis4NH2-P)-CONH2] ({DOTA-Ahx}-WTICNNWHDCW[Pro(4S-NH2)]-NH2; disulfide 4-10)",10 to 100

# Test system: SHP-77 tumors
# Assay: Ex vivo biodistribution of radiolabeled peptides in nude mice bearing SHP-77 tumors
# Settings: [^177Lu]Lu labelling; nude mice bearing SHP-77 tumors (n = 3); 24 hours post-injection; intravenous
# Method: [^177Lu]LuCl3 was received from venders in HCl solution. For every mCi of [^177Lu]LuCl3 added to the reaction vial (1.5 mL Eppendorf vial), ammonium acetate buffer (0.2 M, pH 4.9, 100 μL, containing 1% w/v ascorbic acid and 6% v/v ethanol) and peptide conjugate (1 nmol also referred to herein as “chelator-peptides”) was added. A peptide conjugate of the present disclosure is also referred to herein as a “chelator-peptide”. The pH of the solution was determined to be approximately 5 by using pH strips. The reaction vial was incubated at 80° C., 700 RPM for 17-20 minutes. A sample from the reaction was analyzed by RP-HPLC using an Agilent Infinity II 1260 HPLC to determine reaction completion and radiochemical purity of [^177Lu]Lu-chelator-peptide. HPLC conditions: Waters XBridge BEH C18 Column, 130 A, 3.5 um, 4.6 mm×250 mm; mobile phase: Solvent A=water (with 0.1% formic acid), solvent B=acetonitrile (with 0.1% formic acid). Gradients: 25-45% B in 10 minutes, 45-65% B in 12 minutes, 65-90% in 6 minutes at a flow rate of 0.5 mL/min. Required amounts of the product was formulated in 1% PBSA for cell studies.
# Mice were intravenously injected (via the lateral tail vein) with a bolus dose of the radiolabeled peptides for ex vivo biodistribution studies when tumor volumes were in range of 200-400 mm^3 for xenograft mice and when age of the mice was 5-7 weeks for tumor naïve mice studies. To assess the amount of radionuclide injected into individual mice the syringe was assayed in a dose calibrator before and after injection for [^177Lu]Lu-peptide.
# Mice were euthanized at pre-determined time points and selected tissues were resected and collected into pre-weighed tubes. The tubes were then reweighed post resection, the difference giving the weight of each tissue. Radioactivity in each tissue was measured using a gamma counter. Counts were decay corrected to the time of injection and percentage of injected activity per gram (% IA/g) was calculated for each tissue based on the injected activity into each individual mouse. Injected activity was converted to counts based on the sensitivity of the gamma counter. The counts in tissue were then converted to the percentage of injected activity and this was divided by the mass of tissue to give % IA/g.
SMILES,kidney uptake (% IA/g),tumor uptake (% IA/g)
"CC[C@H](C)[C@H](NC(=O)[C@@H](NC(=O)[C@H](Cc1c[nH]c2ccccc12)NC(=O)CCCCCNC(=O)CN1CCN(CC(=O)O)CCN(CC(=O)O)CCN(CC(=O)O)CC1)[C@@H](C)O)C(=O)N[C@H]1CSSC[C@@H](C(=O)N[C@@H](Cc2c[nH]c3ccccc23)C(=O)N2CCC[C@@H]2C(N)=O)NC(=O)[C@H](CC(=O)O)NC(=O)[C@H](Cc2cnc[nH]2)NC(=O)[C@H](Cc2c[nH]c3ccccc23)NC(=O)[C@H](CC(N)=O)NC(=O)[C@H](CC(N)=O)NC1=O [compound 18, DOTA-Ahx-W-T-I-C(3)-N-N-W-H-D-C(3)-W-P-CONH2] ({DOTA-Ahx}-WTICNNWHDCW[dP]-NH2; disulfide 4-10)",D (% IA/g > 10 in kidney),A (0 < % IA/g ≤ 5 in tumor)
"CC[C@H](C)[C@H](NC(=O)[C@@H](NC(=O)[C@H](Cc1c[nH]c2ccccc12)NC(=O)CC[C@H](NC(=O)CC[C@H](NC(=O)CC[C@H](NC(=O)CN1CCN(CC(=O)O)CCN(CC(=O)O)CCN(CC(=O)O)CC1)C(=O)O)C(=O)O)C(=O)O)[C@@H](C)O)C(=O)N[C@H]1CSSC[C@@H](C(=O)N[C@@H](Cc2c[nH]c3ccccc23)C(=O)N2CCC[C@H]2C(N)=O)NC(=O)[C@H](CC(=O)O)NC(=O)[C@H](Cc2c[nH]cn2)NC(=O)[C@H](Cc2c[nH]c3ccccc23)NC(=O)[C@H](CC(N)=O)NC(=O)[C@H](CC(N)=O)NC1=O [compound 82, DOTA-(gE)3-W-T-I-C(3)-N-N-W-H-D-C(3)-W-P-CONH2] ({DOTA-γGlu-γGlu-γGlu}-WTICNNWHDCWP-NH2; disulfide 4-10)",D (% IA/g > 10 in kidney),A (0 < % IA/g ≤ 5 in tumor)
